Assay results as given in patent publication US7550469B2, “Heterocyclic amide derivatives and their use as dopamine D3 receptor ligands” (Aventis Pharmaceuticals Inc., priority 2001, dated 2009).
Read-outs that look alike come from different tables or passages of the source.

Target: T1, cloned human dopamine D3 receptors (Homo sapiens, UniProt P35462)
T1 construct: expressed in transfected cells; membrane homogenate
Test: [N-Methyl-3H]Spiroperidol binding to cloned human dopamine D3 receptors (Protocol 1)
How it was run: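 Radioligand displacement with [N-methyl-3H]spiroperidol used a physiological-salt Tris buffer (0.05 M, pH 7.7; NaCl 120 mM, KCl 5 mM, CaCl2 2 mM, MgCl2 1 mM) and membranes of a high-expressing stable CHO clone carrying human D3. Total ligand concentration came from measured added CPM; 0.1% ascorbic acid was optional for oxidizable compounds.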

[1] = the 23rd table, read-out: D3 Ki
[2] = the 13th table, unit inferred, read-out: D3Ki
[3] = the 14th table, read-out: D3 Ki
[4] = the 22nd table, read-out: D3 Ki
[5] = the 18th table, read-out: D3 Ki

T1 sequence (P35462 whole entry): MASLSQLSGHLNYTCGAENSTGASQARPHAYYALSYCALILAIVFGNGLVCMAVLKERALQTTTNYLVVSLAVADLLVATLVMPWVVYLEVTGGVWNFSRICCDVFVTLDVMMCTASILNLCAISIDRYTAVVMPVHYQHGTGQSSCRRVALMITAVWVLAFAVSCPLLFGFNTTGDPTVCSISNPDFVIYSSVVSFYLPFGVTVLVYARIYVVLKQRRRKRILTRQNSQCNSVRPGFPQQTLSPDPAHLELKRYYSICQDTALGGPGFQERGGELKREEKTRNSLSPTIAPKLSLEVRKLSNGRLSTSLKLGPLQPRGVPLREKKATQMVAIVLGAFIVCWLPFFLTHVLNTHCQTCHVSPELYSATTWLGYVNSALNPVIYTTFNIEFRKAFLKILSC

Structure (SMILES): O=C(NCCCCN1CCN(c2c(Cl)sc3cc(F)ccc23)CC1)c1ccc2c(c1)OCO2 [compound 815055]
- Ki (read-out: D3K1): 3.5 nM

Structure (SMILES): COc1ccc(C(=O)Nc2ccc(CN3CCN(c4csc5cc(F)ccc45)CC3)cc2)cc1OC [compound 822208]
- Ki (the 19th table, read-out: D3 Ki): 183 nM

Structure (SMILES): O=C(NCCCCN1CCN(c2c(Cl)sc3cc(F)ccc23)CC1)c1cc2ccccc2s1 [compound 815064]
- Ki (read-out: D3K1): 1.9 nM

Structure (SMILES): O=C(NC/C=C\CN1CCN(c2csc3cc(C(F)(F)F)ccc23)CC1)c1ccc(F)cc1 [compound 826341]
- Ki (read-out: D3K1): 11 nM

Structure (SMILES): O=C(NCc1ccoc1CN1CCN(c2csc3cc(F)ccc23)CC1)c1ccc(F)cc1 [compound 825845]
- Ki (the 20th table, read-out: D3 Ki): 206 nM

Structure (SMILES): COc1ccc(C(=O)NC/C=C/CN2CCN(c3csc4cc(C(F)(F)F)ccc34)CC2)cc1 [compound 827738]
- Ki (Table 2, read-out: D3K1): 22.6 nM

Structure (SMILES): CC(C)CCNC[C@@H]1C[C@H]1CN1CCN(c2csc3cc(C(F)(F)F)ccc23)CC1 [compound 832276]
- Ki [1]: 30.3 nM

Structure (SMILES): O=C(NC/C=C\CN1CCN(c2csc3cc(C(F)(F)F)ccc23)CC1)C1(c2ccccc2)CC1 [compound 827736]
- Ki (Table 2, read-out: D3K1): 173 nM

Structure (SMILES): O=C(NCCCCN1CCN(c2c(Cl)sc3cc(C(F)(F)F)ccc23)CC1)C1CCCC1 [compound 815579]
- Ki (read-out: D3K1): 104 nM

Structure (SMILES): O=C(NCCCCN1CCCN(c2csc3cc(C(F)(F)F)ccc23)CC1)c1c[nH]c2ccccc12 [S980649]
- Ki [2]: 54 nM

Structure (SMILES): O=C(NCCCCCN1CCC(c2noc3ccsc23)CC1)c1ccccc1C(F)(F)F [compound 816211]
- Ki [2]: 224 nM

Structure (SMILES): C[C@@H]1CN(c2csc3cc(F)ccc23)C[C@H](C)N1CCCCNC(=O)c1ccc(-c2ccccc2)cc1 [compound 826943]
- Ki (the 21st table, read-out: D3 Ki): 12.7 nM

Structure (SMILES): O=C(NCCCCCN1CCN(c2csc3cc(C(F)(F)F)ccc23)CC1)c1cccc2ccccc12 [compound 826768]
- Ki (read-out: D3K1): 23 nM
- Ki [3]: 23 nM

Structure (SMILES): O=C(c1ccc(F)cc1)N(Cc1ccccc1)CC1CC1CN1CCCN(c2csc3cc(F)ccc23)CC1 (racemic) [compound 830393]
- Ki (the 17th table, read-out: D3 Ki): 21.8 nM

Structure (SMILES): O=C(NCCCCN1CCN(c2c(Cl)sc3cc(C(F)(F)F)ccc23)CC1)c1ccc(C(F)(F)F)cc1 [compound 815575]
- Ki (read-out: D3K1): 50 nM

Structure (SMILES): O=C(NCCCCCCN1CCN(c2csc3cc(C(F)(F)F)ccc23)CC1)c1cccc2ccccc12 [compound 826750]
- Ki (read-out: D3K1): 3.2 nM
- Ki [3]: 3.2 nM

Structure (SMILES): O=C(NC/C=C/CN1CCN(c2csc3cc(C(F)(F)F)ccc23)CC1)c1ccc(F)cc1 [compound 827719]
- Ki (read-out: D3K1): 51 nM

Structure (SMILES): O=C(NCCCCN1CCCN(c2csc3cc(C(F)(F)F)ccc23)CC1)c1ccc2[nH]ccc2c1 [S980651]
- Ki [2]: 54 nM

Structure (SMILES): O=C(NCC(CO)CCN1CCN(c2csc3cc(C(F)(F)F)ccc23)CC1)c1c(F)cc(F)cc1F (stereo not drawn) [818923ES]
- Ki (Table 2, read-out: D3K1): 319 nM

Structure (SMILES): O=C(NC/C=C/CN1CCN(c2csc3cc(C(F)(F)F)ccc23)CC1)c1cc2ccccc2s1 [compound 827728]
- Ki (read-out: D3K1): 16 nM

Structure (SMILES): O=C(NCCCCCN1CCCN(c2csc3cc(F)ccc23)CC1)c1cc2ccccc2s1 [S984494]
- Ki [2]: 11.6 nM

Structure (SMILES): CCCCc1ccc(C(=O)NCCCCN2CCN(c3noc4ccsc34)CC2)cc1 [compound 829685]
- Ki [4]: 149 nM

Structure (SMILES): COc1cccc2c(C3CCN(C[C@@H]4C[C@H]4CNCCC(C)(C)C)CC3)noc12 [compound 833433]
- Ki [1]: 112 nM

Structure (SMILES): O=C(NCCCCN1CCCN(c2csc3cc(C(F)(F)F)ccc23)CC1)c1ccc(C(F)(F)F)cc1 [S980644]
- Ki [2]: 570 nM

Structure (SMILES): Cc1ccc(C(=O)N[C@H](CO)CCCN2CCN(c3csc4cc(C(F)(F)F)ccc34)CC2)cc1 [compound 815695]
- Ki (Table 2, read-out: D3K1): 198 nM
- Ki (read-out: D3K1): 198 nM
- Ki [3]: 198 nM

Structure (SMILES): O=C(NCCCCN1CCN(c2noc3ccsc23)CC1)c1cc2ccccc2s1 [compound 829681]
- Ki [4]: 17.7 nM

Structure (SMILES): O=C(NCc1sccc1CN1CCN(c2csc3cc(F)ccc23)CC1)c1cccnc1Cl [compound 826313]
- Ki [5]: 134 nM

Structure (SMILES): CC1(C)C(CNC(=O)c2cccc(C#N)c2)C1CN1CCN(c2csc3cc(C(F)(F)F)ccc23)CC1 (stereo not drawn) [compound 826280]
- Ki (read-out: D3K1): 116 nM

Structure (SMILES): O=C(NCc1sccc1CN1CCN(c2csc3cc(F)ccc23)CC1)c1cccc(Cl)c1 [compound 826296]
- Ki [5]: 106 nM
